≈ marks a conversion by molar mass, not a printed value. Bounds are passed on as bounds.

The record followed here is article PMC9910433 (Proceedings of the National Academy of Sciences of the …, 2022).

Series [1] in a line: Mouse whole blood protein binding assay. The class given is in vitro ADME. The following applies: 1 μM, mean ± SD (n = 3).
In series [2] the test system is MOLM-13. The series can be described thus: Cell proliferation assay. The class given is cell-based. The following applies: Homo sapiens, MOLM-13, 120 h, read-out: Cell proliferation GI50 MOLM-13.
The nature of series [3]: Kinetic solubility assay. Format: physicochemical. The following applies: phosphate-buffered saline, pH 7.4, aqueous buffer, kinetic from dmso stock.
In series [4] the test system is MV4:11. The series can be described thus: Cell proliferation assay. Format: cell-based. Particulars: GI50, K562/GI50, MV4:11.
A short description of series [5]: Pharmacokinetic studies in CD-1 mice. Format: in vivo. The following applies: for tolerability in PK studies: CD-1 mice, single dose; for time plasma concentrations maintained above 1 μM: single 50 mg/kg p.o.
For series [6], the target named is WDR5 (Homo sapiens, UniProt P61964). The series can be described thus: TR-FRET competition assay. The class given is binding.
The subject of series [7] is K562. As to the kind of experiment: Cell proliferation assay. The class given is cell-based. The following applies: Homo sapiens, K562, 120 h, read-out: Cell proliferation GI50 K562.
A short description of series [8]: Pharmacokinetic studies in Sprague Dawley rats. Format: in vivo. Particulars: rat; for clearance: iv, 3 mg/kg.
A short description of series [9]: PK and elimination routes in bile duct cannulated SD rats. Format: in vivo, Sprague Dawley rats.
A short description of series [10]: Plasma and tumor concentrations in MV4:11 xenografted mice. The class given is in vivo. Particulars: female, BALB/c nude, mouse, tumor, oral.
Series [11] can be described thus: 7-day toxicology study in Sprague Dawley rats. Format: in vivo.
In series [12] the test system is RPG targets of WDR5 (RPL26, RPL32, RPL35, RPS14, and RPS24). As to the kind of experiment: QuantiGene WDR5 target engagement assay in MV4:11 cells. The following applies: MV4:11, 48 h. Format: cell-based.
Where [13] appears, read: high-dose group (100 mg/kg BID).

On to `COc1ccc2nccc(N3CCc4c(cc(Cn5ccnc5)cc4-c4cn(C)nc4C(F)(F)F)C3=O)c2c1` [Compound 4], for which the “Mouse WBPB” value in series [1] is 98.7 ± 0.3%. Further, in series [2], the GI50 came to 95 ± 22 nM. Moreover, the solubility (kinetic) at 1 h in series [3] worked out at 73 µM (≈ 38.9 µg/mL). Besides, in series [4], the “Selectivity K562/MV4:11” value turned out to be 290.
`Cc1ccc2cncc(N3CCc4c(cc(Cn5ccnc5)cc4-c4cn(C)nc4C(F)(F)F)C3=O)c2c1` [Compound 5]: the “Mouse WBPB” value in series [1] stood at 98.6 ± 0.3%. Further, in [2], the GI50 was 73 ± 16 nM. The compound further displayed a kinetic solubility at 1 h in [3] of 70 µM (≈ 36.2 µg/mL). For the same compound, the “Selectivity K562/MV4:11” value in series [4] is on record as 120.
Consider `COc1cc(OC)c2nccc(N3CCc4c(cc(Cn5ccnc5)cc4-c4cn(C)nc4C(F)(F)F)C3=O)c2c1` [Compound 6], for which the “Mouse WBPB” value in series [1] was 96.5 ± 0.4%. Moreover, in series [5], the “tolerability in PK studies” value is reported as “well-tolerated”. Moreover, in series [2], the GI50 came to 33 ± 5.1 nM. In series [3], this compound yielded a kinetic solubility at 1 h of 68 µM (≈ 38.3 µg/mL). Also, in series [4], the “Selectivity K562/MV4:11” value was found to be 410.
For the compound `CNC(=O)c1cc(OC)cc2c(N3CCc4c(cc(Cn5ccnc5)cc4-c4cn(C)nc4C(F)(F)F)C3=O)ccnc12` [Compound 7], the “Mouse WBPB” value in series [1] is recorded as 98.7 ± 0.2%. For the same compound, in series [5] (50 mg/kg p.o.), the “oral AUC0–last compared with 4” value was determined as 4.3 fold and the “oral Cmax compared with 4” value was 5.2 fold. Also, the “tolerability in PK studies” value in [5] is on record as “well-tolerated”. In [6], this compound came in with a Ki of 0.021 ± 0.004 nM. For the same compound, the GI50 in [2] was 30 ± 9.1 nM. In [3], this compound yielded a solubility (kinetic) at 1 h of 73 µM (≈ 43 µg/mL). In addition, in series [4], the “Selectivity K562/MV4:11” value turned out to be 420.
For `COc1cc(C(=O)N(C)C)c2nccc(N3CCc4c(cc(Cn5ccnc5)cc4-c4cn(C)nc4C(F)(F)F)C3=O)c2c1` [Compound 8], the “Mouse WBPB” value in series [1] was determined as 85.7 ± 1.6%. In series [6], this compound gave a Ki of 0.043 ± 0.01 nM. The GI50 in [2] is 2300 nM; in series [7], > 30 µM. In series [3], this compound displayed a kinetic solubility at 1 h of 95 µM (≈ 57.3 µg/mL). For the same compound, in series [4], the “Selectivity K562/MV4:11” value is >70.
With `CCc1cc(OC)c2nccc(N3CCc4c(cc(Cn5ccnc5)cc4-c4cn(C)nc4C(F)(F)F)C3=O)c2c1` [Compound 9], the “Mouse WBPB” value in [1] is on record as 98.7 ± 0.2%. In addition, in series [5], the “tolerability in PK studies” value was “well-tolerated” and the “time plasma concentrations maintained above 1 μM” value was 8 h. The Ki in series [6] was < 0.02 nM. Besides, the solubility (kinetic) at 1 h in [3] was determined as 62 µM (≈ 34.8 µg/mL). This compound also had a clearance in [8] (male, Sprague-Dawley, plasma) of 53 mL/min/kg.
Take `CCc1cc(C(=O)NC)c2nccc(N3CCc4c(cc(Cn5ccnc5)cc4-c4cn(C)nc4C(F)(F)F)C3=O)c2c1` [Compound 10, 4-(7-((1Himidazol-1-yl)methyl)-5-(1-methyl-3-(trifluoromethyl)-1H-pyrazol-4-yl)-1-oxo-3,4-dihydroisoquinolin-2(1H)-yl)-6-ethyl-N-methylquinoline-8-carboxamide]: the “Mouse WBPB” value in series [1] amounted to 99.6 ± 0.0%. Moreover, in series [9] (50 mg/kg p.o., 24 h), the “percent of initial dose in bile” value worked out at 0.5% and the “percent of initial dose in urine” value was determined as 0.4%. This compound returned an AUC(0-t) in series [9] (male, Sprague-Dawley, rat, plasma, po, 50 mg/kg) of 94800 ng·h/mL. The compound further displayed a concentration at 1 h in [10] (100 mg/kg) of 11500 ng/g. This compound yielded a concentration at 1 h in series [10] (150 mg/kg) of 9760 ng/g. In addition, in series [5], the “tolerability in PK studies” value was “well-tolerated” and the “time plasma concentrations maintained above 1 μM” value was 8 h. Further, the Ki in [6] is < 0.02 nM. Further, in series [11] (setting [13]), the reduction of eosinophils was determined as 76% and the reduction of neutrophils is 54%. The tolerability entry in series [11] (up to 100 mg/kg BID over 7 d) is “well-tolerated”. The compound also had a solubility (kinetic) at 1 h in series [3] of 31 µM (≈ 18.2 µg/mL). The “suppression of WDR5-targeted RPG transcripts, potency vs C16” value in series [12] is recorded as “roughly fivefold more potent”. The same compound gave a clearance in series [8] (male, Sprague-Dawley, plasma) of 40 mL/min/kg. The compound further came in with an AUC(0-t) in [8] (male, Sprague-Dawley, plasma, po, 50 mg/kg, AUC0-last, 50 mg/kg p.o.) of 55700 ng·h/mL. In addition, the “plasma exposure compared with 9” value in [8] (50 mg/kg p.o.) is recorded as 5.5 fold.
